Reference: patent publication US20220218679A1, “NOVEL COMPOUNDS AND PHARMACEUTICAL COMPOSITIONS THEREOF FOR THE TREATMENT OF INFLAMMATORY DISORDERS” (Galapagos NV, priority 2019, published 2022)

Assays:
Mouse Hepatocyte = experiment: Metabolic stability in hepatocytes (mouse); type: in vitro ADME; conditions: 1 μM test compound, cryopreserved mouse hepatocytes
Experimental: 4.6. Metabolic Stability in Hepatocytes
The aim of this assay is to determine the metabolic stability of the compound in hepatocytes (cryopreserved) of different species. Low hepatocyte stability may result in the formation of unwanted metabolites, high clearance, and therefore is not desirable.
The decrease in parent was assessed by measuring the percentage remaining by LC-MS/MS analysis.
A 10 mM stock solution of test compound in DMSO was first diluted in DMSO to 3 mM, and then in modified Krebs-Henseleit buffer (Sigma, K3753) to 5 μM. This compound dilution was added to a suspension of pooled cryopreserved hepatocytes (BioreclamationIVT) at 37° C. under gentle shaking.
Final reaction conditions were: 1 μM of test compound, 0.03% DMSO, 0.5 million viable hepatocytes/mL, and 75 μL incubation volume.
Testosterone (1 μM) and 7-hydroxycoumarin (1 μM) were used, respectively as phase I and phase II metabolic reaction controls.
After 0, 10, 20, 45, 90, 120 and 180 min of incubation, the reaction was terminated with 225 μL of MeCN:MeOH (2:1) containing 100 ng/mL of diclofenac as analytical internal standard. Samples were mixed, centrifuged and the supernatant analyzed by LC-MS/MS.
The instrument responses (ratios of test compound and internal standard peak areas) were referenced to the zero time point samples (considered as 100%) in order to determine the percentage of compound remaining.
Plots of percentage compound remaining were used to determine the intrinsic clearance in the hepatocyte incubations using the following equations:
Scaled Clint [L/h/kg]=Clint[μL/min/10^6 cells]*#(10^6) cells/g liver*60*( 1/10^6) Scaled Clint unbound [L/h/kg]=Clint [L/h/kg]/Fu,inc where: fu,inc equals hepatocyte binding, derived from microsomal binding (fu,mic) by following equation: […]

[1] = test system: CL097 triggered TNFα release in human whole blood; experiment: Ex vivo human TNFα release inhibition (human whole blood assay); type: cell-based; conditions: CL097 2 μg/mL, 3 h 30 min at 37° C.
Description: (§1) 4.10.1. Ex Vivo Human IFNα and TNFα Release Inhibition (Human Whole Blood Assay)
(§2) The aim of the assay is to evaluate the activity of compounds of the invention on the activated TLR/IRAK-4 pathway in an ex vivo human whole blood setting. Toll-like receptors (TLRs) are pattern recognition receptors that recognize a wide variety of microbial molecules, called pathogen-associated molecular patterns (PAMPs). Human TLR7 and TLR8 recognize imidazoquinoline compounds (e.g., CL097—CAS n #1026249-18-2) and single stranded RNAs as their natural ligands. Activation of TLRs leads to the production of several cytokines (e.g., IFNα, TNFα, IL-8, IL-6) by the TLR agonist-treated cells, whereas IRAK4 leads to the production of IFNα. Cytokine release is used as readout in this assay and represents a measure for the level of inhibition of the TLR/IRAK-4 pathway by the tested compound. It should be noted that in the context of the complete organism, other sources for these cytokines exist that are not dependent on the TLR/IRAK-4 pathway, such as e.g., macrophages (upon activation of the Fcγ receptor (Yan et al., 2012)) or T cells (upon activation of the T cell receptor (Brehm et al., 2005)).
(§3) 4.10.1.1. Experimental Design
(§4) Blood was collected from healthy volunteers into lithium heparin tubes by venipuncture, then gently inverted several times to prevent clotting and incubated for at least 15 min at 37° C. on a rocking mixer shaker. Then, 100 μL of blood was dispensed into polypropylene 96-well microplate and pre-incubated in duplicate with 0.3% DMSO or test compound at different concentrations (from 30 to 0.01 μM, 3-fold dilutions to get 0.3% DMSO at the final) for 15 min at 37° C. After this pre-incubation, blood was triggered with CL097 (2 μg/mL from 1 mg/mL solution in water; InvivoGen, tlrl-c97) for 3 h 30 min at 37° C. Microtubes were centrifuged at 5000×g for 10 min at 4° C. and approximately 40 μL of plasma were collected into a polystyrene 96-well plate. Plasma could be analyzed freshly, within 30 min after triggering, or frozen at −80° C. Finally, the quantification of TNFα and IFNα were performed in the plasma using AlphaLISA Kit for TNFα and IFNα according to the manufacturer's instructions and read on the Ensight (PerkinElmer).
For each blood sample, the TNFα concentrations of the samples were determined from the fit. Data were then expressed a percentage of inhibition PIN for each replicate using the formula:
With mean TNFα with CL097=mean TNFα concentration of replicate samples triggered with CL097; TNFαsample1=TNFα concentration of sample 1; mean TNFα with vehicle=mean TNFα concentration of replicate samples treated with vehicle.
(§5) Curve fitting for pIC50 determination were generated using mean PIN±sem. Graphs and pIC50 calculations were derived using Prism 5.03 software (GraphPad).

[2] = test system: CL097 triggered IFNα release in human whole blood; experiment: Ex vivo human IFNα release inhibition (human whole blood assay); type: cell-based; conditions: CL097 2 μg/mL, 3 h 30 min at 37° C.
Description: as §1, §2, §3, §4
A standard curve was created by plotting on log-log the mean […] on the y-axis against the concentration on the x-axis and a 4-parameters logistic regression (4PL) was made through the points. For each blood sample, the IFNα concentrations of the samples were determined from the fit. Data were then expressed as a percentage of inhibition (PIN) for each replicate using the formula:
With mean IFNα with CL097=mean IFNα concentration of replicate samples triggered with CL097; IFNαsample1=IFNα concentration of sample 1; mean IFNα with vehicle=mean IFNα concentration of replicate samples treated with vehicle.
as §5

Mouse Hepatocyte stability (Perc. remaining at 90 min) (Mouse Hepatocyte) [Perc.] | IC50 ([1]; Homo sapiens) [nM] | IC50 ([2]; Homo sapiens) [nM] | IC50 [1] [nM] | IC50 [2] [nM] | SMILES
51.75 |  |  |  |  | NC(=O)c1cn2nc(C3CCOCC3)cc2cc1NC(=O)c1cccc(C(F)F)n1 [Compound 16, 5-[[6-(difluoromethyl)pyridine-2-carbonyl]amino]-2-tetrahydropyran-4-yl-pyrazolo[1,5-a]pyridine-6-carboxamide]
 | 0.1 to 500 | 0.1 to 500 |  |  | [2H]C([2H])([2H])Oc1cn2nc(CCC(C)(C)O)cc2cc1NC(=O)c1cccn(C2CC2)c1=O [Compound 24, 1-cyclopropyl-N-[2-(3-hydroxy-3-methylbutyl)-6-(trideuteriomethoxy)pyrazolo[1,5-a]pyridin-5-yl]-2-oxopyridine-3-carboxamide]
10.17 | 1000 to 5000 | 1000 to 5000 |  |  | COc1cn2nc(CCC(C)(C)O)cc2cc1NC(=O)c1cccc(C(F)(F)F)n1 [Compound 3, N-[2-(3-hydroxy-3-methylbutyl)-6-methoxypyrazolo[1,5-a]pyridin-5-yl]-6-(trifluoromethyl)pyridine-2-carboxamide]
76.25 | 1000 to 5000 | 1000 to 5000 |  |  | CNC(=O)c1cn2nc(CCC(C)(C)O)cc2cc1NC(=O)c1cccc(C(F)(F)F)n1 [Compound 5, 2-(3-hydroxy-3-methylbutyl)-N-methyl-5-[[6-(trifluoromethyl)pyridine-2-carbonyl]amino]pyrazolo[1,5-a]pyridine-6-carboxamide]
 | > 5000 | > 5000 |  |  | CNC(=O)c1cn2nc(C3CCOCC3)cc2cc1NC(=O)c1cccc(C(F)F)n1 [Compound 15, 5-[[6-(difluoromethyl)pyridine-2-carbonyl]amino]-N-methyl-2-tetrahydropyran-4-yl-pyrazolo[1,5-a]pyridine-6-carboxamide]
87.8 |  |  |  |  | COc1c(NC(=O)c2cccn(C3CC3)c2=O)cc2cc(CCC(C)(C)O)nn2c1C [Compound 13, 1-cyclopropyl-N-[2-(3-hydroxy-3-methyl-butyl)-6-methoxy-7-methyl-pyrazolo[1,5-a]pyridin-5-yl]-2-oxo-pyridine-3-carboxamide]
 |  | 500 to 1000 |  |  | CNC(=O)c1cn2nc(CCC(C)(C)O)cc2cc1NC(=O)c1cccc(C(F)F)n1 [Compound 19, 5-[[6-(difluoromethyl)pyridine-2-carbonyl]amino]-2-(3-hydroxy-3-methyl-butyl)-N-methyl-pyrazolo[1,5-a]pyridine-6-carboxamide]
80.9 |  | 1000 to 5000 |  |  | CC(C)(O)CCc1cc2cc(NC(=O)c3cccc(C(F)F)n3)c(C(N)=O)cn2n1 [Compound 20, 5-[[6-(difluoromethyl)pyridine-2-carbonyl]amino]-2-(3-hydroxy-3-methyl-butyl)pyrazolo[1,5-a]pyridine-6-carboxamide]
93 | 500 to 1000 | 1000 to 5000 |  |  | CCOc1cn2nc(CCC(C)(C)O)cc2cc1NC(=O)c1cccn(C2CC2)c1=O [Compound 17, 1-cyclopropyl-N-[6-ethoxy-2-(3-hydroxy-3-methyl-butyl)pyrazolo[1,5-a]pyridin-5-yl]-2-oxo-pyridine-3-carboxamide]
 | 0.1 to 500 | 500 to 1000 |  |  | COc1cn2nc(CC(F)C(C)(C)O)cc2cc1NC(=O)c1cccn(C2CC2)c1=O (centres unmarked) [Compound 22, 1-cyclopropyl-N-[2-(2-fluoro-3-hydroxy-3-methyl-butyl)-6-methoxy-pyrazolo[1,5-a]pyridin-5-yl]-2-oxo-pyridine-3-carboxamide]
94.1 | 0.1 to 500 | 500 to 1000 |  |  | COc1cn2nc(CCC(C)(C)O)cc2cc1NC(=O)c1cccn(C)c1=O [Compound 2, N-[2-(3-hydroxy-3-methylbutyl)-6-methoxypyrazolo[1,5-a]pyridin-5-yl]-1-methyl-2-oxopyridine-3-carboxamide]
 | 500 to 1000 | 500 to 1000 |  |  | COc1cn2nc(CC(F)C(C)(C)O)cc2cc1NC(=O)c1cccn(C2CC2)c1=O (single isomer, unassigned; enantiomer a) [Compound 25, 1-cyclopropyl-N-[2-(2-fluoro-3-hydroxy-3-methyl-butyl)-6-methoxy-pyrazolo[1,5-a]pyridin-5-yl]-2-oxo-pyridine-3-carboxamide Enantiomer A]
 | 0.1 to 500 | 500 to 1000 |  |  | [2H]C([2H])([2H])C(O)(CCc1cc2cc(NC(=O)c3cccn(C4CC4)c3=O)c(OC)cn2n1)C([2H])([2H])[2H] [Compound 23, 1-cyclopropyl-N-[6-methoxy-2-[4,4,4-trideuterio-3-hydroxy-3-(trideuteriomethyl)butyl]pyrazolo[1,5-a]pyridin-5-yl]-2-oxo-pyridine-3-carboxamide]
93 | 500 to 1000 | 1000 to 5000 |  |  | CCOc1cn2nc(CCC(C)(C)O)cc2cc1NC(=O)c1cccn(C)c1=O [Compound 18, N-[6-ethoxy-2-(3-hydroxy-3-methyl-butyl)pyrazolo[1,5-a]pyridin-5-yl]-1-methyl-2-oxo-pyridine-3-carboxamide]
49.45 | 1000 to 5000 | 1000 to 5000 |  |  | COc1cn2nc(CCC(C)(C)O)cc2cc1NC(=O)c1cccn(C2CCC2)c1=O [Compound 21, 1-cyclobutyl-N-[2-(3-hydroxy-3-methyl-butyl)-6-methoxy-pyrazolo[1,5-a]pyridin-5-yl]-2-oxo-pyridine-3-carboxamide]
 | 0.1 to 500 | 1000 to 5000 |  |  | CC(C)(O)CCc1cc2cc(NC(=O)c3cccc(C(F)(F)F)n3)c(C(N)=O)cn2n1 [Compound 4, 2-(3-hydroxy-3-methylbutyl)-5-[[6-(trifluoromethyl)pyridine-2-carbonyl]amino]pyrazolo[1,5-a]pyridine-6-carboxamide]
75.15 |  |  |  |  | CNC(=O)c1cn2nc(C3CCCS(=O)(=O)C3)cc2cc1NC(=O)c1cccc(C(F)(F)F)n1 (centres unmarked) [Compound 8, 2-(1,1-dioxothian-3-yl)-N-methyl-5-[[6-(trifluoromethyl)pyridine-2-carbonyl]amino]pyrazolo[1,5-a]pyridine-6-carboxamide]
 |  |  | 1000 to 5000 | 1000 to 5000 | COc1cn2nc(CC(F)C(C)(C)O)cc2cc1NC(=O)c1cccn(C2CC2)c1=O (single isomer, unassigned; enantiomer b) [Compound 26, 1-cyclopropyl-N-[2-(2-fluoro-3-hydroxy-3-methyl-butyl)-6-methoxy-pyrazolo[1,5-a]pyridin-5-yl]-2-oxo-pyridine-3-carboxamide Enantiomer B]
